From US5118681A (priority 1989, dated 1992)

What was measured:
Pseudomonas fluorescens [1] = experiment: Speed of Kill Test, alternate, 24 h, synthetic hard water (Table 4); format: cell-based; conditions: Ps.fl in synthetic hard water, 100 ppm
A.n = experiment: Minimum Inhibitory Concentration Test, alternate (Table 4), A.n; format: cell-based, Aspergillus niger; conditions: TSB, 72 hours
How it was run: (§1)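 Compound in acetone was diluted into TSB and serially diluted 1:1 from 250 ppm down to 0.8 ppm, in duplicate. Plates were inoculated with diluted 24 h culture and incubated 3 days at 30° C; MIC recorded as lowest concentration with no growth.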

Candida albicans (C.alb) = experiment: Minimum Inhibitory Concentration Test, alternate (Table 4), C.alb; format: cell-based; conditions: TSB, 72 hours
Experimental: (§2) A 125 μl aliquot of 10,000 ppm test compound in acetone was added to 4.88 ml of TSB to provide a 250 ppm solution. From this solution, 100 μL was transferred to the first row of two microtiter plate columns. Both replicates and five additional compounds were all serially diluted 1:1 to a final concentration of 0.8 ppm in TSB.
(§3) Inoculation was accomplished by diluting a 24 hr Ps fl culture, four mls per 36 mls of phosphate buffer solution. A Dynatech autoinoculator was used to transfer 1.5 μl of this cell suspension to the microtiter plates. The plates were incubated at 30° C. for 3 days before the lowest concentration at which no growth occurs was recorded in the database. The SOK data and MIC test data on Ps.fl, Ps.ae, E.c, and S.a. bacteria and Candida albicans (C.alb), A.n and A.p fungi are listed in Table 4.

E.c = experiment: Minimum Inhibitory Concentration Test, alternate (Table 4), E.c; format: cell-based, Escherichia coli; conditions: TSB, 72 hours
Experimental: as §2, §3

Ps.ae = experiment: Minimum Inhibitory Concentration Test, alternate (Table 4), Ps.ae; format: cell-based, Pseudomonas aerugenosa; conditions: TSB, 72 hours
Pseudomonas fluorescens [2] = experiment: Minimum Inhibitory Concentration Test, alternate (Table 4), Ps.fl; format: cell-based; conditions: TSB, 72 hours, 30° C
How it was run: as §1

S.a = experiment: Minimum Inhibitory Concentration Test, alternate (Table 4), S.a; format: cell-based, Staphylococcus aureus; conditions: TSB, 72 hours
Experimental: as §2, §3

[3] = test system: Pseudoperonospora cubensis; experiment: whole plant or invertebrate; format: in vivo; conditions: in vivo
Piricularia oryzae = experiment: whole plant or invertebrate; format: in vivo; conditions: in vivo
[4] = test system: Pellicularia filamentosa (f. sp. sasiki); experiment: whole plant or invertebrate; format: in vivo; conditions: in vivo
Phytophthora infestans = experiment: whole plant or invertebrate; format: in vivo; conditions: 200 ppm application rate
[5] = test system: Erysiphe graminis (f. sp. tritici); experiment: whole plant or invertebrate; format: in vivo; conditions: in vivo

N-n-octyl-cis-3-{2-[ethyl-N-(2-thiophenylmethyl)malonamido]thio}acrylamide [Example 28]
SOK (Pseudomonas fluorescens [1]): > 100 ppm | MIC A.n (A.n): 16-31 ppm | MIC C.alb (Candida albicans (C.alb)): 63 ppm | MIC E.c (E.c): 500 ppm | MIC Ps.ae (Ps.ae): 500 ppm | MIC Ps.fl (Pseudomonas fluorescens [2]): 500 ppm | MIC S.a (S.a): 500 ppm | % control CDM [3]: 96% | % control RB (Piricularia oryzae): 25% | % control RSB [4]: 0% | % control TLB (Phytophthora infestans): 50% | % control WPM [5]: 0%
